ChEMBL document CHEMBL1201862, “PubChem BioAssay data set” (2004)
Activity calls are given as the source filed them.

Experiments:
[1] = molecular target: DNA repair protein RAD52 homolog (Homo sapiens, UniProt P43351); assay type: functional, biochemical
[2] = HEK293T cytotoxicity, dose response, cytotoxicity control for miR-122 modulator project, cell-based, inhibitor set, cherry-pick, set 2 (AID 720697); assay type: functional
cells = assay type: functional, cell-based
[3] = cytotoxicity toward HT-29 cells – cell-based, CellTiter-Glo luminescence, IC50, dose response (AID 1117330); assay type: functional
[4] = cytotoxicity toward Colo320 cells – cell-based, CellTiter-Glo luminescence, IC50, dose response (AID 1117334); assay type: functional; conditions: COLO 320
[5] = RKO cell viability reduction, dose response, CellTiter-Glo luminescence (AID 1117322); assay type: functional
[6] = HeLa 4N DNA content increase, dose response, cell-based, IC50 (AID 1117351); assay type: functional
[7] = SNU-C1 cell viability reduction, dose response, CellTiter-Glo luminescence (AID 1117323); assay type: functional, cell-based
[8] = Concentration-dependent survival of SW480 colon cancer line, luminescence detection with CellTiter-Glo, half-maximal inhibitory concentration (AID 1117338); assay type: functional
[9] = molecular target: T1, Nuclear receptor subfamily 0 group B member 1 (Homo sapiens, UniProt P51843); assay type: functional, cell-based;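 note: HEK293T cells transfected with SF-1 and DAX-1 plus StAR promoter luciferase reporter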
T1 sequence (P51843 whole entry): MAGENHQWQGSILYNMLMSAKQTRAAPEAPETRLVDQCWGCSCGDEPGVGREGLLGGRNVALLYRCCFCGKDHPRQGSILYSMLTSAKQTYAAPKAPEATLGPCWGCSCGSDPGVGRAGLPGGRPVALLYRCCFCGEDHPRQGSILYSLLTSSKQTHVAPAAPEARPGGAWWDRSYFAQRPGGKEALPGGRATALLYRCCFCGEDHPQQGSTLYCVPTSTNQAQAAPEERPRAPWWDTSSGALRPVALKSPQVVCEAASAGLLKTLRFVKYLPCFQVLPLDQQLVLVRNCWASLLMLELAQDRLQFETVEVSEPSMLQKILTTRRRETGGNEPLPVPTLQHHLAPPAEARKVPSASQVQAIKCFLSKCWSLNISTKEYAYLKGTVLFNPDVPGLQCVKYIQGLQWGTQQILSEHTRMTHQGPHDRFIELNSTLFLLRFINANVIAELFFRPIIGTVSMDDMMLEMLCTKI

[10] = HeLa 2N DNA content increase, dose response, cell-based, IC50 (AID 1117349); assay type: functional
[11] = cytotoxicity toward HCT116 cells – cell-based, CellTiter-Glo luminescence, IC50, dose response (AID 1117332); assay type: functional; conditions: HCT-116
[12] = inhibitors of HIV Env-driven cell fusion, dose response, cherry-pick (AID 652057); assay type: functional, cell-based
[13] = off-target signal loss in HeLa-CEM21 co-culture – HeLa F-luc CTL cells, cherry-picked, counter-screen for HIV-1 Env fusion inhibitor project, dose response (AID 652040); assay type: functional, cell-based;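 note: potency for signal decrease marking cytotoxic or nonspecific inhibition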
[14] = ZM109 Env clade C HIV-1 fusion inhibitors, dose response, HeLa effector, CEM target cells, luciferase, cherry-pick (AID 652058); assay type: functional, cell-based
[15] = inhibitors of clade B AD8 Env fusion, dose response, cell-based, cherry-pick (AID 652062); assay type: functional;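 note: luciferase signal from cell-cell fusion driven by HIV-1 clade B AD8 Env; potency is for inhibitors of fusion seen as a drop in luminescence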
[16] = CEM21 lymphoblast cell cytotoxicity, dose response, cytotoxicity control for viral fusion inhibitor project, CellTiter-Glo luminescence, cherry-picked (AID 652042); assay type: functional, cell-based;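 note: potency for signal decrease meaning cytotoxicity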
[17] = molecular target: 5-hydroxytryptamine receptor 2A (Mus musculus, UniProt P35363); assay type: functional, cell-based;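 note: CHO-K1 cells with tagged receptor and beta-arrestin; agonist potency measured as compound-induced activation of the receptor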
Sequence of 5-hydroxytryptamine receptor 2A (P35363 whole entry): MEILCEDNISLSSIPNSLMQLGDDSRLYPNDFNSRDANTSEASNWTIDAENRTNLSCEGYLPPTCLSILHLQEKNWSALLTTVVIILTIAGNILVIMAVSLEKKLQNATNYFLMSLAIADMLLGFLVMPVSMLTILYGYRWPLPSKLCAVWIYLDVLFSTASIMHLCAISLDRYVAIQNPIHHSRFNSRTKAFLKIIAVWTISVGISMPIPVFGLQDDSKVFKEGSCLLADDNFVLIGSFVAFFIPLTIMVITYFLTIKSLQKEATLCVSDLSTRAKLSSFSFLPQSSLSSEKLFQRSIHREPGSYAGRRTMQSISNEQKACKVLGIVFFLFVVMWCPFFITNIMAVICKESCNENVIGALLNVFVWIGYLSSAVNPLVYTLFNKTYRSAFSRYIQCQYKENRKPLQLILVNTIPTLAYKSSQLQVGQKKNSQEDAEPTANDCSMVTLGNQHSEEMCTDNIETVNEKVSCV

Mu-type opioid receptor = Mu-type opioid receptor (Homo sapiens, UniProt P35372); assay type: functional, cell-based;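 note: U2OS cells with beta-arrestin recruitment to OPRM1 by beta-gal complementation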
Sequence of Mu-type opioid receptor (P35372 whole entry): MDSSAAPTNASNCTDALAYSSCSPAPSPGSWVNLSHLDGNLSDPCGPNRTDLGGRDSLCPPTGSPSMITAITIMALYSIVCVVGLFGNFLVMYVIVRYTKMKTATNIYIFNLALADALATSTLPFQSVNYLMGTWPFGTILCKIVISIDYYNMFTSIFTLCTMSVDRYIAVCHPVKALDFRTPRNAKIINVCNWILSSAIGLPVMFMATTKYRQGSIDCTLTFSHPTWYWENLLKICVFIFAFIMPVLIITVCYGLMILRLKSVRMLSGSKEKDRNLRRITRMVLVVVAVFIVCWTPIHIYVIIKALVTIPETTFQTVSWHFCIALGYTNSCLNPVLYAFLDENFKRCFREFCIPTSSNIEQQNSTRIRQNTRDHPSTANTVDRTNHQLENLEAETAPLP

[18] = molecular target: FAD-linked sulfhydryl oxidase ALR (Homo sapiens, UniProt P55789); experiment: inhibitors of human ALR sulfhydryl oxidase, dose response, biochemical, H2O2 detection, luminescence, cherry-pick (AID 493248)
Sequence of FAD-linked sulfhydryl oxidase ALR (P55789 whole entry): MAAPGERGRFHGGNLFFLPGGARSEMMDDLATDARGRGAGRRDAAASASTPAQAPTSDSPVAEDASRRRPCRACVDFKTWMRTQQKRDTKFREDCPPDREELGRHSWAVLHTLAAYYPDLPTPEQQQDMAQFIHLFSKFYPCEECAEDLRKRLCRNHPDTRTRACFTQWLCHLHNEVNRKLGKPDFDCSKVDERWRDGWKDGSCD

[19] = NIH:OVCAR-3 ovarian cancer cell cytotoxicity, dose response, PAX8 inhibitor project, plate reader, dry powder samples (AID 743044); assay type: functional, cell-based
[20] = IGROV1 ovarian cancer cell cytotoxicity, dose response, PAX8 inhibitor project, plate reader, dry powder samples (AID 743043); assay type: functional, cell-based; conditions: IGROV-1
Paired box protein Pax-8 = Paired box protein Pax-8 (Homo sapiens, UniProt Q06710); experiment: inhibitors of PAX8-driven TPO luciferase reporter, dose response, RMG-I cells, cherry-pick (AID 687027); assay type: functional, cell-based;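 note: luciferase reporter driven by Pax8 target thyroperoxidase promoter measured by SteadyGlo luminescence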
[21] = inhibitors of intracellular T. cruzi replication, confirmation, NIH3T3 host cells, beta-gal luminescence (AID 2044); assay type: functional, cell-based;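 note: intracellular parasites grown in NIH/3T3 mouse fibroblasts as host cells; luminescent beta-galactosidase reporter signal from transgenic T. cruzi replicating inside host cells; inhibitors lower the luminescence signal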
[22] = cytotoxicity toward NIH3T3 fibroblasts, dose response, counter-screen, cell-based, ATP luminescence, mouse fibroblasts (AID 2010); assay type: functional;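 note: cells exposed to compound for about 90 hours before reading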
Beta-galactosidase = Beta-galactosidase (Escherichia coli, UniProt Q8VNN2); experiment: Dose response counterscreen for EBI2 assay utilizing the enzyme, b-galactosidase.; assay type: functional
Sequence of Beta-galactosidase (Q8VNN2 whole entry, the tested form may be a part): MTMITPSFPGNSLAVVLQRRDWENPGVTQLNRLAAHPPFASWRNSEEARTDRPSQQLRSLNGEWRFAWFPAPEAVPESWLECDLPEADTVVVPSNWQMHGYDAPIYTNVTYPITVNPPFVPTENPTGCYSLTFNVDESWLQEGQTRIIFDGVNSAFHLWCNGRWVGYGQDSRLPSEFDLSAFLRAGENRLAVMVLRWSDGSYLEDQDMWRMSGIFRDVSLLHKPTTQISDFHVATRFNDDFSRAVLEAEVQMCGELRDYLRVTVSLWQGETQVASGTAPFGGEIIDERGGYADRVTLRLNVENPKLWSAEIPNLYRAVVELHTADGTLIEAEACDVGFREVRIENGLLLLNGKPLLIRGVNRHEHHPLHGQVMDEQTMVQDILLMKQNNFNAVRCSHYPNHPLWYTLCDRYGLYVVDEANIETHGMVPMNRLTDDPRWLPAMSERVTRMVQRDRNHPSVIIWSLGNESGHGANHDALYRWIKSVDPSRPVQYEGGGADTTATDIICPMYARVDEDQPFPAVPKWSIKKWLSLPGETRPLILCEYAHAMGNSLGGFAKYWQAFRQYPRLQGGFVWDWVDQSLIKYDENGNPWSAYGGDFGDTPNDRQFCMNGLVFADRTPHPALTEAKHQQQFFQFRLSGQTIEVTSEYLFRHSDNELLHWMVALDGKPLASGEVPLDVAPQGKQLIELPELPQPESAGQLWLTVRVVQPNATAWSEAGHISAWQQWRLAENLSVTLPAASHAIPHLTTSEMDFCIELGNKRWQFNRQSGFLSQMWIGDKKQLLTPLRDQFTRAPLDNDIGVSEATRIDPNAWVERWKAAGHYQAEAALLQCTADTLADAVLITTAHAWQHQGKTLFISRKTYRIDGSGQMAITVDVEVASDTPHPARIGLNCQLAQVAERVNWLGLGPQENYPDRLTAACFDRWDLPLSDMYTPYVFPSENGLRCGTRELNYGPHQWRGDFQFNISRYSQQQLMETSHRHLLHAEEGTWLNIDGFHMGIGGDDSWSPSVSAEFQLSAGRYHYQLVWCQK

[23] = molecular target: Arf-GAP with SH3 domain, ANK repeat and PH domain-containing protein 1 (Homo sapiens, UniProt Q9ULH1); assay type: functional;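 note: biochemical fluorescence polarization dose–response screen measuring inhibition of ASAP1; ASAP1 GAP domain stimulating GTP hydrolysis by truncated human ARF1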
Sequence of Arf-GAP with SH3 domain, ANK repeat and PH domain-containing protein 1 (Q9ULH1 whole entry, the tested form may be a part): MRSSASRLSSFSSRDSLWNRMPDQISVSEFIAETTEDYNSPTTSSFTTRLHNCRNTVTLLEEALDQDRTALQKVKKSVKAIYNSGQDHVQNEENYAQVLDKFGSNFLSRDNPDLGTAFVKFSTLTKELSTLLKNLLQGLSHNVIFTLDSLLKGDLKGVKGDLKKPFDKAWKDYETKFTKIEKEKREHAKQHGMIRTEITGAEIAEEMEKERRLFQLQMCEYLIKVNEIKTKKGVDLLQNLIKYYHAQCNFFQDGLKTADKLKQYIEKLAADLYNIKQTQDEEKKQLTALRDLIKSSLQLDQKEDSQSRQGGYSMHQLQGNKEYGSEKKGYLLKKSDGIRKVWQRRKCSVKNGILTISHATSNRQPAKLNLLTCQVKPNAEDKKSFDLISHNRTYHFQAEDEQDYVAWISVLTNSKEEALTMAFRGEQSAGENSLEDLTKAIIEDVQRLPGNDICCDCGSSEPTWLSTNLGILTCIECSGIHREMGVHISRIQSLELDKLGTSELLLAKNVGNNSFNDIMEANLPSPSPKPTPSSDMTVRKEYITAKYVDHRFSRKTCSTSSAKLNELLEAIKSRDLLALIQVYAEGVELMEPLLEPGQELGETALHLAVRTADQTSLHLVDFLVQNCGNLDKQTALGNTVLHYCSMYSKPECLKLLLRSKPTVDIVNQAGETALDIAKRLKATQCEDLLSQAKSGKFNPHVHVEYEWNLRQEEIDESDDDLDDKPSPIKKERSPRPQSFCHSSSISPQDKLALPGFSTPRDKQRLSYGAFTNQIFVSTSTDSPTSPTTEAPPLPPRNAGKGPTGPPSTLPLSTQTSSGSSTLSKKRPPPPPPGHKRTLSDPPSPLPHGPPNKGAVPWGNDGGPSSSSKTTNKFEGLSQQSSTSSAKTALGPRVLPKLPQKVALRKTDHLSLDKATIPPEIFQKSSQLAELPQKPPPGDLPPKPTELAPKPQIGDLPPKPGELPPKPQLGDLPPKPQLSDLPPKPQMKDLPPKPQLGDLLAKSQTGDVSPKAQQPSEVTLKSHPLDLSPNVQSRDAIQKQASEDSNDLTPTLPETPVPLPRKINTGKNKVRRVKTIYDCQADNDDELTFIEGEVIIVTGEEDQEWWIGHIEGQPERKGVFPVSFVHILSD

[24] = molecular target: T2, Small ubiquitin-related modifier 1 (Homo sapiens, UniProt P63165); experiment: inhibitors of SUMO1 partner interactions, dose response, biochemical, FRET (AID 624383); assay type: functional; conditions: read-out: IC50_Mean
T2 sequence (P63165 whole entry): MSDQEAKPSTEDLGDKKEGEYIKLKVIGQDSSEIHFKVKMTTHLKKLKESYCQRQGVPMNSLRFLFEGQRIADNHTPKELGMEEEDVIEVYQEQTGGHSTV

[25] = molecular target: Tyrosine-protein phosphatase non-receptor type 11 (Homo sapiens, UniProt Q06124); experiment: SHP2 phosphatase inhibition, dose response, selectivity assay for STEP inhibitor project, biochemical (AID 602367); assay type: functional; conditions: read-out: IC50_Mean
Sequence of Tyrosine-protein phosphatase non-receptor type 11 (Q06124 whole entry, the tested form may be a part): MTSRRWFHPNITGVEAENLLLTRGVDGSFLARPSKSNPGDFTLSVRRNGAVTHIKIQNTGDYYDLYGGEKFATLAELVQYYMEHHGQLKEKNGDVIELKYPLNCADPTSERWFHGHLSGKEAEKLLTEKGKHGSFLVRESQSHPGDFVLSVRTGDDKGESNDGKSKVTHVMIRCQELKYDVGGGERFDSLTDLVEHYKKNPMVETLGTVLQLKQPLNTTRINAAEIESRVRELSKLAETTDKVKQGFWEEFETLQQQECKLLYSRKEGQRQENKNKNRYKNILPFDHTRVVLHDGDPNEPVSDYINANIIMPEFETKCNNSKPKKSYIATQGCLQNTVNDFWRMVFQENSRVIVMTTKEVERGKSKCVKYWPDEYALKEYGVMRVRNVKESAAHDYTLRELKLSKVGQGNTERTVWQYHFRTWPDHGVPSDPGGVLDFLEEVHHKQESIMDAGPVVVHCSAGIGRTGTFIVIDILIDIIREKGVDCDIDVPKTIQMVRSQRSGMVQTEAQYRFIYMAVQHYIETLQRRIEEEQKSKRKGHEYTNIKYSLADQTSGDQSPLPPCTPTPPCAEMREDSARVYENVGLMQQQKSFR

[26] = molecular target: T3, Carboxy-terminal domain RNA polymerase II polypeptide A small phosphatase 1 (Homo sapiens, UniProt Q9GZU7); experiment: inhibitors of CTDSP1, concentration-response testing, biochemical assay, absorbance-based, actives from ultra-high-throughput screening (AID 540297); assay type: functional
T3 sequence (Q9GZU7 whole entry): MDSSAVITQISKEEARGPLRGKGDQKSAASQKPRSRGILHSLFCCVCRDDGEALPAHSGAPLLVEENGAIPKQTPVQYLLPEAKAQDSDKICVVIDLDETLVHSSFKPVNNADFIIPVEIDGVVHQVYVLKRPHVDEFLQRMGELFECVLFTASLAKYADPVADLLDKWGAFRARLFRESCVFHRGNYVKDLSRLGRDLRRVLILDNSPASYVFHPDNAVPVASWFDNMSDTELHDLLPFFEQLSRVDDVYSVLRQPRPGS

[27] = molecular target: Dual specificity protein phosphatase 3 (Homo sapiens, UniProt P51452); experiment: VHR phosphatase inhibition, dose response, selectivity assay for STEP inhibitor project, biochemical (AID 602374); assay type: functional; conditions: read-out: IC50_Mean
Sequence of Dual specificity protein phosphatase 3 (P51452 whole entry): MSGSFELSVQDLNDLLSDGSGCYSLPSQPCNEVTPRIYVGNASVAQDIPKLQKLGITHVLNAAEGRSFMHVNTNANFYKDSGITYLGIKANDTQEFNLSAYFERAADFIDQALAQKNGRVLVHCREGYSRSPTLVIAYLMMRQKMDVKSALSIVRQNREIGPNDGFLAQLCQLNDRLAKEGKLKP

[28] = molecular target: T2, Small ubiquitin-related modifier 1; experiment: inhibitors of SUMO1 peptide binding, dose response, biochemical, fluorescence polarization, uHTS hits (AID 624382); assay type: functional; conditions: read-out: IC50_Mean
[29] = molecular target: Tyrosine-protein phosphatase non-receptor type 5 (Homo sapiens, UniProt P54829); experiment: STEP phosphatase inhibitors, confirmation, biochemical, fluorescence intensity, uHTS hits (AID 602372); assay type: functional; conditions: read-out: IC50_Mean
Sequence of Tyrosine-protein phosphatase non-receptor type 5 (P54829 whole entry): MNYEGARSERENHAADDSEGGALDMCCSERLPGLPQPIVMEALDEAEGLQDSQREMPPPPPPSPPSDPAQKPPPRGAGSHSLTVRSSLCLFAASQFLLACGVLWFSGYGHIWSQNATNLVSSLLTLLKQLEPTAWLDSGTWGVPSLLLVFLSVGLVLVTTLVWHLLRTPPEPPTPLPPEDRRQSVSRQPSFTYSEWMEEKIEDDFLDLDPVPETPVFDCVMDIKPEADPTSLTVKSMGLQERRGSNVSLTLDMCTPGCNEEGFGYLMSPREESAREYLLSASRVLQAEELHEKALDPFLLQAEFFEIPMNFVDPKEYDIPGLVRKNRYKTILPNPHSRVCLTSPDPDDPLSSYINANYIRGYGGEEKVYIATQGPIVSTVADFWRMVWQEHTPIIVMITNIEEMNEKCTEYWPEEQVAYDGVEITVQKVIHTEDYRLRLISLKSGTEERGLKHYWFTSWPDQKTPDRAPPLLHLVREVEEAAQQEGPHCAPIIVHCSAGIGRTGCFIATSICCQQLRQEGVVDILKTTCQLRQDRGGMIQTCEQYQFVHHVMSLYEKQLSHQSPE

[30] = molecular target: Histone-lysine N-methyltransferase NSD2 (Homo sapiens, UniProt O96028); assay type: biochemical
[31] = molecular target: T4, Corticotropin-releasing factor receptor 2/Corticotropin-releasing factor-binding protein (Homo sapiens, UniProt P24387+Q13324); experiment: Dose Response confirmation of uHTS hits for small molecule antagonists of the CRF-binding protein and CRF-R2 receptor complex.; assay type: functional; conditions: read-out: IC50_Mean
T4 sequence (Q13324 whole entry): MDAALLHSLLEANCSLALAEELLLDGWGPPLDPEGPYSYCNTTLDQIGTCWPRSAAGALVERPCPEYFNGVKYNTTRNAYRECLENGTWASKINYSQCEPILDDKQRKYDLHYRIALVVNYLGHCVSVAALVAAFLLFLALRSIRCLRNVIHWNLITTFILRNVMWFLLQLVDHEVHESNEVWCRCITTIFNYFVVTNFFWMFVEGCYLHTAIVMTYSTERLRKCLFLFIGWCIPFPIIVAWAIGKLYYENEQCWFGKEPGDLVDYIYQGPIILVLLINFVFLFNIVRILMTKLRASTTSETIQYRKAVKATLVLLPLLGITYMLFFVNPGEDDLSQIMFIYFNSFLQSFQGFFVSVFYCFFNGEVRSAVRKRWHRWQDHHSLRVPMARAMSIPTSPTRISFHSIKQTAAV
T4 sequence (P24387 whole entry): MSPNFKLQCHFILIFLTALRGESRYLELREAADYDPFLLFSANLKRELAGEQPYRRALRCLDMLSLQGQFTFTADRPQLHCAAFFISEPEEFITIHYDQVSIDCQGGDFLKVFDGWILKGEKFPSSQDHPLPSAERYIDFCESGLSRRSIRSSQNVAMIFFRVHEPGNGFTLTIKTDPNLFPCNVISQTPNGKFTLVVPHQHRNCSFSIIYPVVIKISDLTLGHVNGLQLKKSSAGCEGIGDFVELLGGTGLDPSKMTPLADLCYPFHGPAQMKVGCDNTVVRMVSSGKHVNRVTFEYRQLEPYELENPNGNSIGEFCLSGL

[32] = molecular target: T5, Low molecular weight phosphotyrosine protein phosphatase (Homo sapiens, UniProt P24666); assay type: functional; conditions: read-out: IC50_Mean
T5 sequence (P24666 whole entry): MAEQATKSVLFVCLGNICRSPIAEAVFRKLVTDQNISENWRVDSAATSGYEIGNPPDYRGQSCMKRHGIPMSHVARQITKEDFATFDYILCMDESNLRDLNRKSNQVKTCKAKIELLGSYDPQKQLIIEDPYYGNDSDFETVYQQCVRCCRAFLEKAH

[33] = molecular target: T5, Low molecular weight phosphotyrosine protein phosphatase; assay type: functional; conditions: read-out: IC50_Mean; remark: listed apart in the source
[34] = molecular target: T4, Corticotropin-releasing factor receptor 2/Corticotropin-releasing factor-binding protein; experiment: activators of CRF receptor 2 with binding protein – uHTS hits, confirmation (AID 602473); assay type: functional; conditions: read-out: EC50_Mean
[35] = HEK293T cytotoxicity, dose response, cytotoxicity control for miR-122 modulator project, cell-based, activator set, cherry-pick (AID 720690); assay type: functional;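 note: HEK293T human cells scored for general mammalian cytotoxicity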
H9c2 = experiment: cells; assay type: functional, cell-based; conditions: Rattus norvegicus, H9c2, Myocardium;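 note: confirmatory concentration-response retest of ultra-high-throughput screening hits for modulation of myocardial damage; cell death induced by hydrogen peroxide oxidative stress; compound pretreatment for 60 min then peroxide exposure for 2 h; potency is for protecting the cells against peroxide damage rather than for killing them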

Structure (SMILES): CN(C)CCCNc1ncnc2oc(-c3ccccc3)c(-c3ccccc3)c12
- AC50 [1]: 21.7 µM (active)

Structure (SMILES): C[C@@H]1CN([C@@H](C)CO)C(=O)c2cc(NC(=O)NC3CCCCC3)ccc2O[C@@H]1CN(C)C(=O)Nc1ccc2c(c1)OCO2
- AC50 [2]: 9.33 µM (active)

Structure (SMILES): COC(=O)Nc1nc2ccc(C(=O)C3CC3)cc2[nH]1 [CYCLOBENDAZOLE]
- IC50 (cells): > 67.5 µM (inactive)
- IC50 [3]: 1.68 µM (active)
- IC50 [4]: 0.156 µM (active)
- IC50 [5]: 0.162 µM (active)
- IC50 [6]: 0.416 µM (active)
- IC50 [7]: > 20 µM (inactive)
- IC50 [8]: > 20 µM (inactive)
- IC50 [9]: > 67.5 µM (inactive)
- IC50 [10]: 0.417 µM (active)
- IC50 [11]: 0.174 µM (active)

Structure (SMILES): COC(=O)[C@]12C[C@H](CC(=O)NCC3CCCCC3)C(=O)N(CCC3=CCCCC3)C1=C[C@H](C(C)(C)C)O[C@@H]2C
- AC50 [12]: 2.45 µM (active)
- AC50 [13]: 3.68 µM (active)
- AC50 [14]: 3.66 µM (active)
- AC50 [15]: 3.6 µM (active)
- AC50 [16]: 21.5 µM (active)

Structure (SMILES): COc1cc(Br)cc(CN2CCN(c3ncccn3)CC2)c1O
- EC50 [17]: 1.02 µM (active)
- EC50 (Mu-type opioid receptor): 92.5 µM (inactive)
- AC50 [18]: > 100 µM (inactive)

Structure (SMILES): C[C@H]1CCCCO[C@H](CN(C)Cc2ccc(C(F)(F)F)cc2)[C@@H](C)CN([C@@H](C)CO)C(=O)c2cc(NC(=O)c3ccccc3)ccc2O1
- AC50 [19]: 21.2 µM (active)
- AC50 [20]: 36.4 µM (active)
- AC50 (Paired box protein Pax-8): 8.95 µM (active)

Structure (SMILES): COc1cccc(-c2cc(C(=O)N3CCN(C(c4ccccc4)c4ccccc4)CC3)no2)c1
- EC50 [21]: 1.61 µM (active)
- EC50 [22]: 25.2 µM (active)
- IC50 (Beta-galactosidase): > 80 µM (inactive)

Structure (SMILES): COc1ccc(C(=O)Nc2nc3cc4c(cc3s2)OCO4)c(OC)c1
- IC50 [23]: 50.8 µM (inactive)

Structure (SMILES): O=C(N/N=C/c1ccc(Cl)c([N+](=O)[O-])c1)c1ccc2c(c1)OCCO2
- IC50 [24]: 9.57 µM (active)
- IC50 [25]: 1.93 µM (active)
- IC50 [23]: 10.9 µM (inactive)
- IC50 [26]: 4.44 µM (active)
- IC50 [27]: 2.29 µM (active)
- IC50 [28]: > 66.6 µM (inactive)
- IC50 [29]: 7.3 µM (active)

Structure (SMILES): Nc1ccc2nn(-c3cc([N+](=O)[O-])ccc3O)nc2c1
- AC50 [30]: > 20 µM (inactive)

Structure (SMILES): O=[N+]([O-])c1ccc(O)c(Nc2ncnc3ccccc23)c1
- IC50 [25]: 1.98 µM (active)
- IC50 [31]: > 47.1 µM (inactive)
- IC50 [32]: 7.06 µM (active)
- IC50 [27]: 1.77 µM (active)
- IC50 [33]: 16.1 µM (active)
- EC50 [34]: > 53 µM (inactive)
- IC50 [29]: 13.3 µM (active)

Structure (SMILES): COc1ccc(OCC(=O)N2CCN(S(=O)(=O)c3ccc(Cl)s3)CC2)cc1
- IC50 (Beta-galactosidase): > 80 µM (inactive)

Structure (SMILES): C[C@H]1CN([C@@H](C)CO)S(=O)(=O)c2ccc(-c3ccccc3F)cc2O[C@@H]1CN(C)Cc1cccnc1
- AC50 [35]: 23 µM (active)

Structure (SMILES): COc1ccc(CN2CCN(C(=O)c3cccs3)CC2)cc1
- EC50 [17]: 76.1 µM (inactive)
- EC50 (Mu-type opioid receptor): 92.5 µM (inactive)

Structure (SMILES): COc1cc(/C=C(\C#N)C(=O)Nc2ccccc2F)ccc1OCCN1CCOCC1
- IC50 (cells): > 67.5 µM (inactive)
- IC50 [9]: > 67.5 µM (inactive)
- IC50 (H9c2): 8.88 µM (active)
